{
  "source": "patent US20040038824A1",
  "about": "“Agrochemical composition” (priority 2000, published 2004)",
  "tested_on": "Wheat",
  "assay": "Greenhouse test of the safener's protective action on wheat against herbicide damage (post-emergence tank mix)",
  "type": "in vivo",
  "conditions": "2- to 3-leaf stage, tank mix with herbicide propynyl (R)-2[4-[(5-chloro-3-fluoro-2-pyridynyl]oxy-phenoxy]propanoate, 20 days post-application",
  "source_text": "Wheat seeds are sown in the greenhouse in plastic pots comprising 0.5 l of garden soil.",
  "data": [
    {"smiles": "CCCCCC(C)OC(=O)COc1ccc(Cl)c2cccnc12", "note": "(stereo not shown) [safener of the formula I, 1-methylhexyl (5-chloroquinolin-8-yloxy)acetate tetrahydrate]", "values": [
      {"measurement": "protective action of the safener in comparison with the plants treated with the herbicide only", "result": "very effective"}
    ]}
  ]
}
